Assay results from patent US10602680B2, “Method of internal seed disinfection by combining seed priming with vacuum infiltration” (priority 2014, dated 2020).

Columns and labels:
[1] = system: triploid watermelon seeds; assay: Phytotoxicity screening by vacuum infiltration followed by matrix priming
Description: Step 110 involves choosing which species of seed will be sought to be disinfected. […] Thus, in step 130, a phytotoxicty screening is carried out on the chosen seeds using the chosen treatment. […] For example, the inventors screened the antibiotic Oxytetracycline using the method of adding chemicals to the water used in matrix priming (Eastin, J. A., 2000, U.S. Pat. No. 6,076,301) and the method of the present invention. Water containing 500 ppm of Oxytetracycline was used to prime triploid watermelon seeds using matrix priming. Further, the same seed was treated with vacuum infiltration using 500 ppm Oxytetracycline solutions for 6 hours, which was followed by a matrix priming using water. For a control, seed of the same lot was treated using vacuum infiltration with water, followed by matrix priming using water. Also, untreated seeds were preserved as an additional control.

[2] = system: Acidovorax avenae subsp. citrulli; assay: 10 minute soak of externally infected diploid watermelon seeds in antibiotic solutions; assay type: in vivo
Description: The effectiveness of using an antibiotic solution combined with matrix priming for disinfecting triploid watermelon seeds internally infected with Acidovorax avenae subsp. citrulli has been tested. In order to screen for effective antibiotics, diploid watermelon seeds were obtained which were externally infected with Acidovorax avenae subsp. citrulli. […] Infected seeds were soaked for 10 minutes in antibiotic solutions of 100 ppm, 250 ppm, and 500 ppm of the above antibiotics. Dosage was chosen based on information reported by Layne Wade (21st Annual Tomato Disease Workshop, Asheville, N.C., November 2006) which stated that the MIC (minimum inhibitory concentration) of Kasugamycin on Acidovorax avenae subsp. citrulli is greater than 100 ppm.

[3] = system: Xanthomonas campestris pv. Campestris; assay: Osmotic priming with PEG followed by vacuum infiltration of infected broccoli seeds: presence of disease; assay type: in vivo; conditions: osmotic priming for 4 days followed by 6 hours of vacuum infiltration with 500 ppm
Description: Determination of proper length of priming treatment and vacuum filtration treatment are performed on an empirical basis. For an example, the inventors identified proper treatment length in the following manner. A lot of broccoli seeds infected with Xanthomonas campestris pv. Campestris were treated with the following treatment regiments. […] Seeds were tested after treatments for both germination and presence of the disease Xanthomonas campestris pv. Campestris.

[4] = system: Acidovorax avenae subsp. citrulli; assay: 30 minute soak of infected diploid watermelon seeds, screening against the target disease; assay type: in vivo
Text: Substances with suitable levels of phytotoxicity are then screened for their affectivity against target diseases. For an example, the inventors screened the antibiotic piperacillin/tazobactam, and electrolyzed water for its affectivity against Acidovorax avenae subsp. citrulli on diploid watermelons seeds. […] This serves only as an example, and any method of screening can be used either in vivo or in vitro to screen for affectivity against target diseases and appropriate dose.

[5] = system: Acidovorax avenae subsp. citrulli; conditions: 1% solution, soak for 15 minutes; cited from earlier work
[6] = system: Acidovorax avenae subsp. citrulli; conditions: on Acidovorax avenae subsp. citrulli; reported by Layne Wade, 2006; cited from earlier work
[7] = further screening using the same format, concentrations not given

| Molecule | phytotoxicity ([1]; in vivo) | elimination of bacteria on seeds ([2]; 250 ppm) | elimination of bacteria on seeds ([2]; 500 ppm) | further results |
| --- | --- | --- | --- | --- |
| O=C(N[C@H](CO)[C@H](O)c1ccc([N+](=O)[O-])cc1)C(Cl)Cl [Chloramphenicol] | phytotoxic | effective | effective |  |
| O=P([O-])([O-])[O-].[Na+].[Na+].[Na+] [trisodium phosphate] |  |  |  | phytotoxicity [1, 7]: phytotoxic |
| Piperacillin/tazobactam |  | effective | effective | eradication of seed borne disease [3]: eradicated; elimination of the bacteria ([4]; 100 ppm): not effective; elimination of the bacteria ([4]; 250 ppm): effective |
| Trimethoprim-sulfamethoxazole |  | effective | effective |  |
| CCn1cc(C(=O)O)c(=O)c2cc3c(cc21)OCO3 [Oxalinic acid] | phytotoxic | effective | effective |  |
| Colistin sulphate |  | effective | effective | phytotoxicity [1, 7]: mild phytotoxic effects |
| [Ca+2].[O-]Cl.[O-]Cl [calcium hypochlorite] |  |  |  | elimination from watermelon seeds [5]: not effective |
| CO/N=C(\C(=O)N[C@@H]1C(=O)N2C(C(=O)O)=C(CSc3nc(=O)c(=O)[nH]n3C)CS[C@H]12)c1csc(N)n1 [Ceftriaxone sodium] | no phytotoxic effects |  |  | elimination of bacteria on seeds ([2]; any dose (100 ppm, 250 ppm, 500 ppm)): not effective |
| C[C@H]1O[C@H](O[C@H]2[C@H](O)[C@@H](O)[C@@H](O)[C@H](O)[C@@H]2O)[C@@H](N)C[C@@H]1NC(=N)C(=O)O [Kasugamycin] |  | effective | effective | MIC (minimum inhibitory concentration) [6]: greater than 100 ppm |
